This is an account of results in US20220054658A1, “CONJUGATES” (Transfection Holdings Limited, priority 2018, published 2022).

“Also recorded” adds a separate entry of the source.

For one test, the system named is L. passim strain PRA-403. Nature of the test: Lotmaria passim parasite uptake test. Format: cell-based. To be noted: room temperature, 45 min. The protocol: 100 mM stock solutions of BODIPY derivatives were prepared with dimethylsulfoxide (DMSO). L passim strain PRA-403 (ATCC) was cultured in modified medium for C. bombi (Tognazzo et al.). The parasite culture was centrifuged, supernatant was removed and 500 μL of L passim medium with compound (final concentration 500, 100, 10 or 1 μM for BODIPY derivatives) or DMSO (0.1%) control was added. Incubated for 45 min at room temperature.
Uptake tests were performed at 1 μM and 100 μM final concentration of CJ-BODIPY derivatives. After incubation at room temperature for 45 min, fluorescence intensities were evaluated using a microplate reader.

For a further test, the system named is C. elegans. Nature of the test: Conjugate uptake in C. elegans (dye and praziquantel conjugates, fluorescence microscopy). Format: in vivo, Caenorhabditis elegans. As to conditions: 50 μM. The protocol: Nematode Growth Media (NGM) plates containing C. elegans were washed with 1.0-1.5 mL of standard M9 buffer and the washes were collected in an Eppendorf tube. The liquid containing the C. elegans was then spun for 1 min at room temperature at 10,000 rpm. The supernatant was removed, and fresh M9 buffer was added (500 μL) to generate a new stock solution of M9 buffer containing the C. elegans.
A C. elegans suspension (100 μL) was added a defined amount of M9 buffer (determined by the final desired concentration of compound to be tested: 399 μL in the case of the BODIPY tagged derivatives) contained within a separate Eppendorf tube. To this was then added a 25 mM solution of the compound in DMSO (1 μL). The resulting suspension was mixed using a vortex instrument.
The resulting mixture was incubated at room temperature for 2 to 4 h. in the dark (using aluminium foil to screen the tube, which was also stored in a cabinet).
Other samples were incubated overnight. Here, OP50 bacteria (3 μL) were added to the worms for feeding purposes, and the worms were kept in the dark at 20° C.
After the incubation, the tube contents were mixed gently by hand (typically by simple rotation of the tube), so as to achieve a homogenous suspension. A sample of the suspension (250 μL) was taken and mixed with M9 buffer (500 μL). The resulting suspension was placed in a centrifuge and spun at room temperature at 10,000 rpm for 1 min. The supernatant was removed, and the washing process was repeated twice more, each time using further quantities of fresh M9 buffer (500 μL each time). After the final washing sufficient supernatant was removed so as to leave a final sample volume of approximate 30 μL.
A 1.5% agarose solution in water was pre-warmed for 60 to 90 s. in a standard household style microwave (set to Power 4). Two drops of this solution was removed and placed on a glass slide. The glass slide was covered with a second glass slide. After 1 min., the slides were slid carefully apart, with the agarose remaining on one of the slides. Onto this slide was placed an aliquot of the final C. elegans solution (15 to 20 μL). To this was added a 20 mM sodium azide solution (5 μL) to inhibit nematode mobility. Vaseline was then placed around the agarose area before replacing the second slide. The slides were not pressed together.
The nematodes were then analysed using a Zeiss Axiskop 2 Plus microscope with a Hamamatsu Orca-ER (CA 742-95) camera. The images were resolved using OpenLab on a Mac operating system.
Compounds 1-11 were evaluated after 3 h and overnight incubation at a 50 μM concentration using the general uptake protocol described for C. elegans.
In order to compare the ability of a conjugate to improve the uptake of the drug praziquantel, two praziquantel derivatives were generated. Praziquantel was tagged with a BODIPY fluorescent tag (compound 12) and incorporated into a conjugate of the invention (compound 13). Compounds 12 and 13 were evaluated at a concentration of 50 μM using the C. elegans uptake protocol described above for compounds 1-11. Microscopic readings were taken after 3, 24 and 72 h.

The test system of test [1] is M. tuberculosis strain H37Rv. Description: Uptake test in M. tuberculosis. Format: cell-based, Mycobacterium tuberculosis. As to conditions: 50 μg/mL (~80 μM), room temperature, 45 min.
Another test concerns B. bovis Texas strain. Nature of the test: Short-term uptake test in B. bovis infected RBCs (confocal microscopy). As to conditions: 25 μM, 37° C., 45 min, ~5% PPE.
The subject of test [2] is gastrointestinal system (crop, midgut and rectum) of adult honey bees. Description: Honey bee gut uptake test. Details: species or system Apis mellifera. To be noted: 100 μM, 33° C., 45 min. The protocol: Honey bee (A. mellifera) hives were obtained and allowed to feed ab libitum spring to autumn. During the winter period, pollen mixed with 50% (v/v) sucrose was added to the honey bee hives in order to provide sufficient food. Honey bees were dissected and gastrointestinal system was removed including the crop, midgut and rectum, and added immediately to 500 μL of the delivery vehicle to be tested sample diluted with PBS at 100 μM final concentration or DMSO (0.1%) control. The mixture was incubated for 45 min at 33° C.
The gastrointestinal system (crop, midgut and rectum) of adult honey bees was extracted, and incubated with derivatives 1, 2, 8 and 11 at 100 μM and 33° C. for 45 min.

The next test deals with T. brucei. Nature of the test: Trypanosoma brucei testing: uptake. To be noted: 10-25 μM, 45 minutes, 37° C. It counts as cell-based.
Another test has as its system P. falciparum. Nature of the test: Plasmodium falciparum testing: uptake by infected and non-infected red blood cells. It counts as cell-based. As to conditions: 25 μM, 45 minutes, 37° C., synchronised stage and mix-stage cultures. The protocol:
Compounds 1, 5, 9, 10 and 11 were tested for uptake in both synchronised stage and mix-stage cultures at 25 μM concentrations.

The test system of a further test is T. annulata. Description: Theileria annulata testing: uptake. It counts as cell-based. To be noted: 1 hour, 37° C. The protocol:
T. annulata were cultured using RPMI 1640 with 10% Albumax II (Thermo-Fisher) serum. A standard hemocytometer was used to calculate the concentration of cells in the parent culture. […] For each compound and concentration to be tested, 2 mL of the culture were centrifuged at 1,000 rpm for 5 minutes. The medium was removed before the cells were resuspended in 950 μL of complete medium containing the compound to be tested at the desired concentration. This was prepared from a 100 mM stock solution of compound in DMSO. Once the cells were resuspended they were transferred to a 5 well plate (1 mL capacity per well). They were then incubated for 1 hour at 37° C. in an atmosphere of 5% CO2 in air. After the incubations were complete the contents of each well were transferred to a 10 mL centrifuge tube. Cold RPMI 1640 (Thermofisher) or HBSS added to obtain a volume of 5 mL. The suspension was then centrifuged at 1,000 rpm and at 4° C. for 5 minutes. […] After the final washing the pellet of cells was resuspended in a minimum amount of RPMI 1640 and then spotted onto a glass slide. The slide was then covered with a cover slip and analysed using Olympus BX60 UV microscope system with a Spot RT3 camera and Spot Image software with a FITC fluorescent filter.

For test [3], the system named is mixed culture of wild type nematodes (roundworms, tape worms and flukes). Description: Nematode testing: mixed culture of wild type nematodes. Format: in vivo. As to conditions: 20 h incubation. The protocol:
A mixed culture of wild type nematodes (roundworms, tape worms and flukes), obtained from Massey University's sheep farm, were incubated for 20 h with compound 14, compound and commercially available ivermectin B1a, as a control. The protocol followed is the same as the C. elegans protocol used previously.

Method for B. bovis Texas strain: The parasite culture was centrifuged and washed once with GIT medium. RBC's were pellet down, and 20 μl infected RBC mixture (10 μl packed infected RBC+10 μl GIT) was prepared. Then, 180 μl GIT medium with compound the compound to be evaluated (final concentration 25 μM for BODIPY derivatives and 100 μM for phiLOV derivatives) or DMSO (0.1%)/PBS control was added. The samples were incubated for 45 min at 37° C. (Samples were stained 1 μg/mL diluted Hoechst 33342 in GIT medium). After incubation, the samples were centrifuged and the pellet was washed with GIT medium (3×). A final solution of 50% haematocrit infected RBC mixture was transferred to slides to be observed by confocal laser microscopy (Nikon A1).
Uptake experiments were performed by incubating the parasite (˜5% Parasitized Erythrocytes (PPE)) with each derivative at 25 μM and 37° C. for 45 min. After incubation, the fluorescence intensities were calculated from confocal microscope images.
The phiLOV double mutant (R475G, K476C) was used to generate derivatives P11, P1, P8, and P3 which were tested for uptake in B. bovis Texas strain using phiLOV as a control. The derivatives and the control were incubated at 100 μM and 37° C. for 45 min. After incubation, the samples were analysed under confocal microscopy using Hoeschst 33342 (Thermofisher) as co-stain.

For the molecule `CC1=CC(C)=[N+]2C1=Cc1ccc(CCCn3cc(CCNC(=O)/C=C\NC(=O)[C@H]4OC(C)(C)OCC4(C)C)nn3)n1[B-]2(F)F` [Compound 2, (Z)—N-((((3-[4,4-Difluoro-5,7-dimethyl-4-bora-3a,4a-diaza-s-indacene-3-yl]propyl)-1H-1,2,3-triazol-4-yl)ethylamino)-3-oxoprop-1-enyl)-2,2,5,5-tetramethyl-1,3-dioxane-4-carboxamide], in the test on L. passim strain PRA-403 (1 μM and 100 μM), the “uptake in L. passim (fluorescence intensity, microplate reader)” value is listed as “highest reading amongst all the compounds tested”. Also, the “uptake in L. passim (fluorescence microscopy)” value with L. passim strain PRA-403 (500 μM) is given as “exhibited fluorescence in the parasite's cytosol, with the derivative forming fluorescence dots”. In the test with C. elegans (3 h incubation), the “uptake: location of fluorescence in C. elegans” value (“uptake: location of fluorescence” below) is “traces of compound 2 were observed in the pharynx, gut cells and gut lumen of the larval stages”. In the test with C. elegans (20 h / overnight incubation), the “uptake: location of fluorescence” value is “fluorescence was localised in the gut cells, gut lumen and to a lesser extent within the pharynx of the larvae”. In [1], the “fluorescence intensity compared to compound 1” value is “around 2.5 times” and the “uptake in M. tuberculosis (fluorescence intensity / microscopy)” value is on record as “preferred over their S counterparts; also recorded: highest fluorescence signals; also recorded: fluorescence is localised at the poles”. In addition, the “uptake compared to compound 1 (% less)” value in the test on B. bovis Texas strain is on record as 90%. The “fluorescence in honey bee gut (crop, midgut, rectum)” value in [2] was “slight fluorescence in midgut and rectum, but none in the crop; also recorded: localised on the surface of the gut, but not inside of it”.
Turning to `CC1=CC(C)=[N+]2C1=Cc1ccc(CCCn3cc(CCNC(=O)CCNC(=O)[C@H](O)C(C)(C)CO)nn3)n1[B-]2(F)F` [Compound 9, (R)—N-((((3-[4,4-Difluoro-5,7-dimethyl-4-bora-3a,4a-diaza-s-indacene-3-yl]propyl)-1H-1,2,3-triazol-4-yl)ethylamino)-3-oxopropyl)-2,4-dihydroxy-3,3-dimethylbutanamide], the “uptake in T. brucei” value with T. brucei was “taken up much more rapidly and in much higher concentrations than compound 5; also recorded: spread throughout the cell”. Besides, the “uptake compared to other compounds” value in the test on C. elegans (3 h incubation) is recorded as “the amount of fluorescence was lower than the enamide derivatives, compounds 1 to 8”; in the test on C. elegans (20 h incubation), “the amount of fluorescence was lower than the enamide derivatives, compounds 1 to 8”. Further, the “uptake: location of fluorescence” value in the test with C. elegans (3 h incubation) was “traces of compound 9 were visible in the get cells and to a lesser extent 30 in the pharynx of both the larvae and the adult nematodes”; in the test on C. elegans (20 h / overnight incubation), “small amounts of fluorescence could be detected in the gut cells of both larval and adult stages”. The “uptake by infected and non-infected red blood cells” value with P. falciparum is “taken up very quickly by both infected and non-infected erythrocytes, with very little difference in uptake between the two sets of red blood cells”. For the same molecule, the “uptake in T. annulata” value in the test on T. annulata was “taken up by T. annulata; also recorded: taken up more rapidly and fluorescence can be detected at lower concentrations albeit it is also present in the infected lymphocyte”.
As for “4″-O—[(R,Z)-3-(2,2,5,5-Tetramethyl-1,3-dioxane-4-carboxamido)acrylate]avermectin B1a [Compound 14]”, in test [3], the “activity against nematodes relative to ivermectin B1a” value was “enhanced activity against nematodes relative to commercially available ivermectin B1a” and the “concentration at which nematodes showed paralysis” value is 5 µM.
Take `CC1=CC(C)=[N+]2C1=Cc1ccc(CCCN=[N+]=[N-])n1[B-]2(F)F` [Compound 11, 3-Azido[4,4-difluoro-5,7-dimethyl-4-bora-3a,4a-diaza-s-indacene-3-yl]propane, reference compound]: the “uptake: location of fluorescence” value is “slight fluorescence after 3 h, focalized in the gut lumen and gut cells” in the test on C. elegans (3 h incubation); “no significant increase in fluorescence even after 20 h incubation” with C. elegans (20 h / overnight incubation). The “uptake by infected and non-infected red blood cells” value in the test with P. falciparum was “diffused into every red blood cell (both infected and non-infected)”. Further, the “uptake in T. annulata” value in the test with T. annulata is “diffused indiscriminately”. Also, the “uptake compared to compound 1 (% less)” value in the test on B. bovis Texas strain is recorded as 90%. In test [2], the “fluorescence in honey bee gut (crop, midgut, rectum)” value is “showed only autofluorescence”.
Consider `CC[C@H](C)[C@H]1O[C@]2(CC[C@@H]1C)C[C@@H]1C[C@@H](C/C=C(\C)[C@@H](O[C@H]3C[C@H](OC)[C@@H](O[C@H]4C[C@H](OC)[C@@H](O)[C@H](C)O4)[C@H](C)O3)[C@@H](C)/C=C/C=C3\CO[C@@H]4[C@H](O)C(C)=C[C@@H](C(=O)O1)[C@]34O)O2` [ivermectin B1a, reference compound], for which the “concentration at which nematodes showed paralysis” value in test [3] came to 50 µM.
As to `CC1=CC(C)=[N+]2C1=Cc1ccc(CCCn3cc(CCNC(=O)CCNC(=O)[C@@H]4OC(C)(C)OCC4(C)C)nn3)n1[B-]2(F)F` [Compound 10, (R)—N-((((3-[4,4-Difluoro-5,7-dimethyl-4-bora-3a,4a-diaza-s-indacene-3-yl]propyl)-1H-1,2,3-triazol-4-yl)ethylamino)-3-oxopropyl)-2,2,5,5-tetramethyl-1,3-dioxane-4-carboxamide], the “uptake: location of fluorescence” value with C. elegans (3 h incubation) was “traces of compound 10 were detected in the gut cells and gut lumen of the larvae; also recorded: also visible to a lesser degree in the pharynx of the larvae”; in the test on C. elegans (20 h / overnight incubation), “fluorescence was visible in the gut cells and in a smaller amount in the pharynx of the larval stages”. Also, the “uptake compared to other compounds” value with C. elegans (20 h incubation) is listed as “comparable with the enamide compounds showing the least uptake”. The “uptake in M. tuberculosis (fluorescence intensity / microscopy)” value in test [1] is reported as “minimal uptake”. Besides, the “uptake by infected and non-infected red blood cells” value in the test with P. falciparum is listed as “not taken up to any visible extent”. In addition, in the test with T. annulata, the “uptake in T. annulata” value is recorded as “very limited uptake”.
